Target: Dipeptidyl peptidase 4 (Homo sapiens, UniProt P27487)
Test: Inhibitory activity against Dipeptidylpeptidase IV (DPP IV) in human acute lymphoblastic leukemia MOLT-4 cell line

Chain of Dipeptidyl peptidase 4 (P27487 whole entry): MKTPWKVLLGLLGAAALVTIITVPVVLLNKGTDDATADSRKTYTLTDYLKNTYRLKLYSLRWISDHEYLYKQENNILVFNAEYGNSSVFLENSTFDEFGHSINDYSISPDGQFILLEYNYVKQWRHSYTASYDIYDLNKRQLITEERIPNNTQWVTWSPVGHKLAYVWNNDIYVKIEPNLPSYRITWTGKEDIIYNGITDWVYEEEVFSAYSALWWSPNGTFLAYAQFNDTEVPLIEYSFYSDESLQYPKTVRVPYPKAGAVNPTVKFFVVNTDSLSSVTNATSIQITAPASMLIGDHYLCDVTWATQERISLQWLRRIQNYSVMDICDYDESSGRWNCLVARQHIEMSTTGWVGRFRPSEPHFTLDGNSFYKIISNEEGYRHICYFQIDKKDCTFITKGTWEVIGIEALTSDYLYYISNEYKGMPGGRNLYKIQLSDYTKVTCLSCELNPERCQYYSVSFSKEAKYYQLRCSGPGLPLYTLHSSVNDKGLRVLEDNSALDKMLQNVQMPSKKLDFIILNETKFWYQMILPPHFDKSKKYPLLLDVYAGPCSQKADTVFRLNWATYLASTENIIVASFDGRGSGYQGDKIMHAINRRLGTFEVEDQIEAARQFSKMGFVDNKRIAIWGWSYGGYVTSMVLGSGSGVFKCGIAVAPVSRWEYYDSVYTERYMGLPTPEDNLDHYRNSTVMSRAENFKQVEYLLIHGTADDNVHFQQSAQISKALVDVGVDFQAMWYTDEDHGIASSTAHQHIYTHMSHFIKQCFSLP

- IC50: > 324 µM
Compound: CC(C)C[C@H](NC(=O)[C@@H](O)[C@H](N)Cc1ccccc1)C(=O)O

From BindingDB's records for doi:10.1016/s0960-894x(99)00034-7 (University of Tokyo, 1999)
